Common to all, as to type: binding
For assay [1], the target named is T1, LXRα (Homo sapiens, UniProt Q13133).
T1 construct: gene NR1H3
T1 sequence (Q13133 1-447): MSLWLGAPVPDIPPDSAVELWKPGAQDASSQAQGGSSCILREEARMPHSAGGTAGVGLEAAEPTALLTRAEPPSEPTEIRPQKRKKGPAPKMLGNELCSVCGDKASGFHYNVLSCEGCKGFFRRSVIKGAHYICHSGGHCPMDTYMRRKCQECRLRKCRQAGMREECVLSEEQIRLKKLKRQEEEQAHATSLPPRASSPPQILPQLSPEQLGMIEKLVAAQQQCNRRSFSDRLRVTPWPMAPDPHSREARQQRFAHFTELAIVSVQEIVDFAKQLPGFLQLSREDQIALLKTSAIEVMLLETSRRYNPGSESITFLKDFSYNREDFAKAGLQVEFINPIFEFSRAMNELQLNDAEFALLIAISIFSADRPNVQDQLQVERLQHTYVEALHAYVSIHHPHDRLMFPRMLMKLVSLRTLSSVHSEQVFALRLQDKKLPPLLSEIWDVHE
Briefly: intrinsic aromatic fluorescence quenching (positive control), CD; LXRE reporter activation.

The target in assay [2] is T1, LXRα. Briefly: intrinsic aromatic fluorescence quenching; also displacement of BODIPY C16-CoA (Ki […]); CD.
Assay [3] has as its target T1, LXRα. The description is as above. The source holds these as a separate data set.
In assay [4] the target is T1, LXRα. Nature of the assay: displacement of LXRα-bound BODIPY C16-CoA; CD change.
Assay [5] addresses T1, LXRα. Briefly: intrinsic aromatic fluorescence quenching; displacement Ki […]; LXRE reporter activation.
The target of assay [6] is T1, LXRα. Briefly: intrinsic aromatic fluorescence quenching; also displacement of BODIPY C16-CoA (Ki […]).
Assay [7] concerns the target T1, LXRα. The assay is described as above. This is another data set of the same source.

Turning to `C[C@H](CCCC(C)(C)O)[C@H]1CC[C@H]2[C@@H]3CC=C4C[C@@H](O)CC[C@]4(C)[C@H]3CC[C@]12C` [25-HC, 25-hydroxycholesterol], the “intrinsic aromatic fluorescence quenching (positive control), CD; LXRE reporter” value on LXRα [1] is “Binding with T-0901317 and 25-hydroxycholesterol (positive controls) yielded binding curves that were sharply saturable”.

On to `CCCCCCCC(=O)SCCNC(=O)CCNC(=O)[C@H](O)C(C)(C)COP(=O)(O)OP(=O)(O)OC[C@H]1O[C@@H](n2cnc3c(N)ncnc32)[C@H](O)[C@@H]1OP(=O)(O)O` [C8:0-CoA, Octanoyl-CoA], for which the Kd at LXRα [2] worked out at 15 ± 5 nM.

Molecule `CCCCCCCCCC(=O)O` [C10:0, Decanoic acid] had a Kd at LXRα [3] of 15 ± 6 nM. Regarding `CCCCCCCCCC(=O)SCCNC(=O)CCNC(=O)[C@H](O)C(C)(C)COP(=O)(O)OP(=O)(O)OC[C@H]1O[C@@H](n2cnc3c(N)ncnc32)[C@H](O)[C@@H]1OP(=O)(O)O` [C10:0-CoA, Decanoyl-CoA], the Ki at LXRα [4] is 7 ± 3 nM. As to `CCCCCCCCCCCC(=O)O` [C12:0, Lauric acid], the Kd at LXRα [5] worked out at 11 ± 4 nM.

Regarding `CCCCCCCCCCCC(=O)SCCNC(=O)CCNC(=O)[C@H](O)C(C)(C)COP(=O)(O)OP(=O)(O)OC[C@H]1O[C@@H](n2cnc3c(N)ncnc32)[C@H](O)[C@@H]1OP(=O)(O)O` [C12:0-CoA, Lauroyl-CoA], binding at LXRα [6] was characterised by a dissociation constant (Kd) of 18 ± 8 nM. For the molecule `CCCCCCCCCCCCCCCC(=O)SCCNC(=O)CCNC(=O)[C@H](O)C(C)(C)COP(=O)(O)OP(=O)(O)OC[C@H]1O[C@@H](n2cnc3c(N)ncnc32)[C@H](O)[C@@H]1OP(=O)(O)O` [C16:0-CoA, Palmitoyl-CoA], on LXRα [7], the affinity, expressed as Kd, was 14 ± 7 nM.

Source of the values: PMC5282955, “Fatty acid binding profile of the liver X receptor α” (Journal of Lipid Research, 2017).
